Measured values taken from patent US20250388597A1, “BIFUNCTIONAL PHOTOCROSSLINKING PROBES FOR COVALENT CAPTURE OF PROTEIN-NUCLEIC ACID COMPLEXES IN CELLS” (UNIVERSITY OF SOUTHERN CALIFORNIA, priority 2022, published 2025).

How the values were obtained:
DNA binding by NFAT1 = biological target: T1, DNA binding by NFAT1 (Homo sapiens, UniProt Q13469); assay: Native EMSA of the effect on DNA binding by NFAT1; assay type: biochemical; conditions: FIG. 12C; increasing concentrations; probes with UV 365 nm 15 min; compared to control lane 3
T1 construct: human NFAT1 protein (residue 399-676, NFAT1-DBD)
T1 sequence (Q13469 399-676): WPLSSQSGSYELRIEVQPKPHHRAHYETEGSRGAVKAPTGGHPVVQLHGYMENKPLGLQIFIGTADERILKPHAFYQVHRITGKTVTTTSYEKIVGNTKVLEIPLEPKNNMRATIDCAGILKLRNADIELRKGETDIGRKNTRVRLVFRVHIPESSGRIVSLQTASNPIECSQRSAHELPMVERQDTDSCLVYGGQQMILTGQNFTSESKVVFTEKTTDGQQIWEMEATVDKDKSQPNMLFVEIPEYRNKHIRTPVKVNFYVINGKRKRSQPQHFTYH
Experimental: All binding reactions contain 10 μM 27 mer dsDNA (5′6-FAM labeled) with a NFAT-binding site, and various combinations of NFAT1 protein (14 μM), FA (1% v/v), 4AMT-LC-SDA (20 μM), with or without UV illumination (365 nm, LED, 30 Watt, sample distance 2 cm, exposure time 15 min at 4 degree C.). 10 μl of the binding reaction is run on a 10% PAGE 0.5×TBE gel. The same gel was visualized by FAM fluorescence for DNA (top) and by Coomassie blue stain for protein (bottom). The higher smearing bands in lane 3, 8, 9, and 10 are most likely non-specific protein complexes often seen when an excessive amount of protein is used to ensure all DNA is bound.
The binding reactions were performed in a buffer of 20 mM Hepes pH 7.6, 150 mM NaCl, 1 mM DTT, 12% glycerol. Typically protein and DNA are mixed to bind at room temperature for 30 min, followed by addition of BFPX probes for an additional 15 min and then UV illumination. In the case of FA treatment, the reaction time is 10 min at room temperature and then quenched by 250 mM glycine. When included (as indicated by a positive sign), the binding reaction contains 10 μM 27 mer dsDNA (Cy5-labeled) with a NFAT-binding site (the antigen receptor response element 2, ARRE2, from the IL-2 promoter, 5′-Cy5-[sequence]-3′ (SEQ ID NO: 2), the complementary strand is not labeled), 24 μM of the DNA binding domain (DBD) of human NFAT1 protein (residue 399-676, NFAT1-DBD). The UV illumination (as indicated by a positive sign) was carried out using a LED Chip (21.4 mm×21.4 mm, 365-370 nm, 30 Watt, sample distance 2 cm, exposure time 2-15 min at 4 degree C., here the exposure time is 15 min). Half of the binding reaction (7.5 μl) was run on a 10% PAGE 0.5×TBE gel and visualized by Cy5 fluorescence on DNA. The small amount of single stranded DNA is due to incomplete annealing. The higher smearing bands are most likely non-specific protein complexes. Neither of these experimental imperfections affected the main conclusion of this experiment because the double stranded-DNA bands and the specific NFAT-DNA complex bands (the middle sharp bands) are well defined and can be monitored without the interference of the other bands.
The presence of both DNA and protein in the same shifted band can be checked by the FAM fluorescence signal (top) and Coomassie stain (bottom), respectively (free NFAT is positively charged and not observable under the EMSA condition).

Nkx2.5/DNA complex = biological target: T2, Nkx2.5/DNA complex (Homo sapiens, UniProt P52952); assay: BFPX crosslinking of Nkx2.5/DNA complexes, SDS PAGE; assay type: biochemical; conditions: denaturing SDS PAGE; probes with UV
T2 construct: human Nkx2.5 DBD (the homeodomain); made in house
Experimental: FIG. 12H depicts BFPX crosslinking of Nkx2.5/DNA complexes. […] The various treatment combinations were list above the gel. The reactions were then analyzed by SDS PAGE under denaturing condition as described in FIG. 12D.

p53/DNA complex = biological target: T3, p53/DNA complex (Homo sapiens, UniProt P04637); assay: BFPX crosslinking of p53/DNA complexes, SDS PAGE; assay type: biochemical; conditions: denaturing SDS PAGE; probes with UV; vs no-protein controls
T3 construct: the human tumor suppressor p53 DBD; made in house
Experimental: FIG. 12I depicts BFPX crosslinking of p53/DNA complexes. The binding reactions between the human tumor suppressor p53 DBD and a 37 mer Cy5 labeled DNA containing a consensus p53 tetramer binding site (5′-/5Cy5/-[…]-3′, (SEQ ID NO: 8)) were set up and treated with BFPX probes and UV illumination as described in FIG. 12C. The various treatment combinations were list above the gel. The reactions were then analyzed by SDS PAGE under denaturing condition as described in FIG. 12D. […] Because p53 bind this this DNA substrate as a tetramer, crosslinked p53/DNA complexes may contain one or more p53 protein molecules. While the monomeric p53/DNA complex appears to be the dominant crosslinked protein-DNA complexes, higher-molecule weight species were visible in SDS gel, which may correspond to crosslinked higher-order p53/DNA complex.

FOXP3 in Hela cells = biological target: T4, FOXP3 in Hela cells (Homo sapiens, UniProt Q9BZS1); assay: Capture of AVI-TEV-FLAG tagged FOXP3 complexes in transfected Hela cells, western blot; assay type: cell-based
T4 construct: AVI tag; TEV site; expressed in transfected cells; host or cells: Hela
T4 sequence (Q9BZS1 1-431): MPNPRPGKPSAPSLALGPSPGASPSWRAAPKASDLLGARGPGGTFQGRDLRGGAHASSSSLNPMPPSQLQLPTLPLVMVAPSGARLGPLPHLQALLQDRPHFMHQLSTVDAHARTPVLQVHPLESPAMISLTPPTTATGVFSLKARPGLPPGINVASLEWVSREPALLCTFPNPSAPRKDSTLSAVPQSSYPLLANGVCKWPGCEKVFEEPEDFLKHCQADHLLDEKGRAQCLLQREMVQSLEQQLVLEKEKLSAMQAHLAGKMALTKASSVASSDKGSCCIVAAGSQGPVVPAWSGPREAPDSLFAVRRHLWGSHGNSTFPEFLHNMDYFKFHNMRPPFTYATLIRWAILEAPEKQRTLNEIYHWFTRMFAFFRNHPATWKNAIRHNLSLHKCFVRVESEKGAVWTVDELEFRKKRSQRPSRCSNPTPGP
Experimental: FIG. 10B depicts Western blot analysis of Hela cells transfected with AVI-TEV-FLAG tagged FOXP3. For each lane, approximately one million of cells were used. Lane 1 was fixed with 1% formaldehyde (FA) for 10 min according to standard protocol. Lane 2, untreated control, Lane 3, UV only, lane 4 and lane 6 were treated with SPB-AAD of 1 or 10 μM, respectively but without UV illumination, lane 5 and lane 7 were treated with SPB-AAD of 1 or 10 μM, respectively and illuminated by UV365 (10 min, 30 W, LED, sample distance 3 cm, cooling at 4 degree C.). The cells were lysed using RIPA buffer and further digested by MNase. The sample mixtures were mixed with SDS loading dye (2% SDS, boil for 10 min) and run on SDS gel for western blot analyses of using Anti-FLAG antibody.
We have performed similar experiments with a different system, Hela cells transfected with AVI-TEV-FLAG tagged FOXP3.

[1] = Precipitation of probe in the aqueous crosslinking reaction; assay type: physicochemical; conditions: aqueous binding reaction; SPB-AAD 125 μM (FIG. 7 lanes 4, 9); SPB-PEG3-AAD 100 μM (FIG. 8C lanes 2, 6)
Experimental: The robust stability of these complexes under strong denaturing conditions (2% SDS and boiling for 10 min) is consistent with the covalent nature of the crosslinking reaction as designed in BFPX. […] As the probe concentration increased, more crosslinked protein/DNA complexes were formed, and the multiple bands likely represented protein-DNA complexes with various degrees of crosslinking, because multiple SPB-AAD molecules could bind the flanking region of the DNA binding sites and engage crosslinking reactions with the protein. At high probe concentrations (lane 5 and lane 10), the complexes become more uniform, likely due to the saturation binding of the BFPX probe to DNA.
For the BFPX probe SPB-PEG3-AAD, when the probe concentration was sufficiently high (lane 3 and lane 7 of FIG. 8C), the crosslinking efficiency was more than 90% for the MEF2/DNA complex based on the DNA signal (comparing lane 3 and lane 1 in the 5FAM gel, the free DNA in lane 3 was nearly all gone as compared the strong band in lane 1). This is consistent with the protein signal (compare lane 3 and lane 1 in the CCB-250 stained gel, the free protein in lane 3 was very faint as compared with the strong band in lane 1).

[2] = test system: MEF2A/DNA complexes in GM12878 cells; assay: Capture of MEF2A/DNA complexes in GM12878 nuclei, western blot; assay type: cell-based; conditions: probe 10 μM + UV365 10 min
Experimental: FIG. 10A depicts Western blot analysis of presence of complexing of MEF2A with DNA in GM12878 cells treated with UV365 and SPB-PEG3-AAD. For each lane, one million of GM12878 cells were used. The nuclei of the cells were extracted and resuspended in 500 μl PBS, treated with various combination of SPB-PEG3-AAD (10 μM) and/or UV365 (10 min, 30 W, LED, sample distance 3 cm, cooling at 4-degree C.). The samples were then sonicated using covaries (1 min) followed by limited MNase digestion (10 min, 37-degree C.). The lysed and partially digested samples were then mixed with SDS loading dye (2% SDS, boil for 10 min) and run on SDS gel for western blot analyses of MEF2A using Anti-MEF2 antibody (B-4) (SCBT, cat #sc-17785).
We tested the capture of MEF2A/DNA complexes in the GM12878 cell line, a Tier 1 ENCODE cell line with rich genomics data.

T3 sequence (P04637 102-292 limits assumed, one chain of several): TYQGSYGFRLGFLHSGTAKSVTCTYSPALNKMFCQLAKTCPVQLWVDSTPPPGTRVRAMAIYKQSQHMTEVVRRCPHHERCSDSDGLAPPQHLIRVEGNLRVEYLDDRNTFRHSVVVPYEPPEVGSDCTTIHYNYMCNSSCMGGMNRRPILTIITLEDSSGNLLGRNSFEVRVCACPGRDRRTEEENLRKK
T2 sequence (P52952 138-197 limits assumed, one chain of several): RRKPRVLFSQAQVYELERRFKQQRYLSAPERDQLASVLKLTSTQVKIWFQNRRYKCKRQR

Row | effect on the binding of NFAT1 to DNA (DNA binding by NFAT1) | dependence of higher molecular weight FOXP3 complex formation on probe concentration (FOXP3 in Hela cells; 10 μM (lane 7) vs 1 μM (lane 5)) | SMILES | crosslinking of the Nkx2.5/DNA complex (Nkx2.5/DNA complex) | crosslinking of the p53/DNA complex (p53/DNA complex) | capture of higher molecular weight FOXP3 complexes (FOXP3 in Hela cells; probe 1 or 10 μM + UV365 10 min (lanes 5 and 7)) | precipitation of probe at highest probe concentration [1] | capture of MEF2A complexes [2]
1 | little or no effect | dosage dependent | C#CCCC1(CCNC(=O)CCCOc2c3occc3cc3ccc(=O)oc23)N=N1 [SPB-AAD, N-(2-(3-(but-3-yn-1-yl)-3H-diazirin-3-yl)ethyl)-4-((7-oxo-7H-furo[3,2-g]chromen-9-yl)oxy)butanamide] | significant crosslinking of the Nkx2.5/DNA complex | significant crosslinking of the p53/DNA complex | can capture higher molecular weight FOXP3 complexes | precipitation of the probe in an aqueous solution | –
2 | – | – | C#CCCC1(CCNC(=O)CCOCCOCCOCCC(=O)NCCNC(=O)CCCOc2c3occc3cc3ccc(=O)oc23)N=N1 [SPB-PEG3-AAD] | – | – | – | the probe precipitated out of solution | could capture MEF2 complexes in the nucleus
3 | little or no effect | – | C#CCCC1(CCNC(=O)CCOCCOCCOCCOCCNC(=O)CCCOc2c3occc3cc3ccc(=O)oc23)N=N1 [SPB-PEG4-AAD, N-(2-(3-(but-3-yn-1-yl)-3H-diazirin-3-yl)ethyl)-1-(4-((7-oxo-7H-furo[3,2-g]chromen-9-yl)oxy)butanamido)-3,6,9,12-tetraoxapentadecan-15-amide] | significant crosslinking of the Nkx2.5/DNA complex | significant crosslinking of the p53/DNA complex | – | – | –
